From patent US11255855B1, “COVID-19 spike-ACE2 binding assay for drug and antibody screening” (priority 2020, dated 2022)

Columns and labels:
[1] = tested on: SARS-COV-2-S-driven entry; format: cell-based, SARS-CoV-2 spike pseudovirus in A549 cells
VSV-G-driven entry = format: cell-based, VSV-G pseudovirus

| SMILES | blocking effect on pseudovirus entry into host A549 cells [1] | inhibition of SARS-COV-2-S-driven entry (in words) [1] | inhibition of VSV-G-driven entry (in words) (VSV-G-driven entry) |
| --- | --- | --- | --- |
| COc1cc(C(=O)NS(=O)(=O)c2ccccc2C)ccc1Cc1cn(C)c2ccc(NC(=O)OC3CCCC3)cc12 [Zafirlukast] | blocking effect | inhibited | not VSV-G-driven entry |
| CN(C)C(=O)COC(=O)Cc1ccc(OC(=O)c2ccc(NC(=N)N)cc2)cc1 [camostat, Camostat Mesilate] | – | No inhibition | – |
| CCN1CCN(C(=O)N[C@@H](C(=O)N[C@@H]2C(=O)N3C(C(=O)O)=C(CSc4nnnn4C)CS[C@H]23)c2ccc(O)cc2)C(=O)C1=O [cefoperazone] | – | No inhibition | – |
